Reference: publication PMC3700073, “Synthesis and Biological Activity of New Thiopyrano[2,3-d]thiazoles Containing a Naphthoquinone Moiety” (Scientia Pharmaceutica, 2013)

How the values were obtained:
60 cancer cell lines = assay: NCI single-concentration screen, 60 cancer cell lines; format: cell-based, human; settings: single concentration 10^−5 M
(melanoma) = assay: NCI single-concentration screen; format: cell-based, human; settings: SK-MEL-25 (melanoma), 10^−5 M
SF-295 (CNS cancer) = assay: NCI single-concentration screen; format: cell-based, human; settings: 10^−5 M
[1] = system: MDA-MB-435 (breast cancer); assay: NCI single-concentration screen; format: cell-based, human; settings: 10^−5 M
CCRF-CEM (leukemia) = assay: NCI five-dose assay; format: cell-based; settings: Homo sapiens
SR (leukemia) = assay: NCI five-dose assay; format: cell-based; settings: Homo sapiens
HOP-62 (NSCL cancer) = assay: NCI five-dose assay; format: cell-based; settings: Homo sapiens, HOP-62, HOP-62, NSCL cancer
NCI-H226 (NSCL cancer) = assay: NCI five-dose assay; format: cell-based; settings: Homo sapiens
NCI-H322M (NSCL cancer) = assay: NCI five-dose assay; format: cell-based; settings: Homo sapiens
NCI-H460 (NSCL cancer) = assay: NCI five-dose assay; format: cell-based; settings: Homo sapiens
MALME-3M (melanoma) [2] = assay: NCI five-dose assay; format: cell-based; settings: Homo sapiens
SK-MEL-5 (melanoma) [3] = assay: NCI five-dose assay; format: cell-based, human; settings: for GI50: Homo sapiens, SK-MEL-5, SK-MEL-5, melanoma; for TGI of the most sensitive cell line: SK-MEL-5 /melanoma/
UACC-257 (melanoma) = assay: NCI five-dose assay; format: cell-based, human; settings: for GI50: Homo sapiens, UACC-257, UACC-257, melanoma
UACC-62 (melanoma) = assay: NCI five-dose assay; format: cell-based; settings: Homo sapiens, UACC-62, UACC-62, melanoma
MCF-7 (breast cancer) = assay: NCI five-dose assay; format: cell-based; settings: Homo sapiens, MCF7, MCF-7, breast cancer
HS 578T (breast cancer) = assay: NCI five-dose assay; format: cell-based, human; settings: for GI50: Homo sapiens, Hs-578T, HS 578T, breast cancer
[4] = system: MDA-MB-468 (breast cancer); assay: NCI five-dose assay; format: cell-based; settings: Homo sapiens, repeated testing
SNB-19 (CNS cancer) = assay: NCI five-dose assay; format: cell-based; settings: Homo sapiens, SNB-19, SNB-19, CNS cancer
OVCAR-3 (ovarian cancer) = assay: NCI five-dose assay; format: cell-based; settings: Homo sapiens, OVCAR-3, OVCAR-3, ovarian cancer
OVCAR-5 (ovarian cancer) = assay: NCI five-dose assay; format: cell-based; settings: Homo sapiens, OVCAR-5, OVCAR-5, ovarian cancer
SK-OV-3 (ovarian cancer) = assay: NCI five-dose assay; format: cell-based; settings: Homo sapiens, SK-OV-3, SK-OV-3, ovarian cancer
786-0 (renal cancer) = assay: NCI five-dose assay; format: cell-based; settings: Homo sapiens, 786-0, 786-0, renal cancer
CAKI-1 (renal cancer) = assay: NCI five-dose assay; format: cell-based; settings: Homo sapiens, CAKI-1, CAKI-1, renal cancer
RXF-393 (renal cancer) = assay: NCI five-dose assay; format: cell-based; settings: Homo sapiens
TK-10 (renal cancer) = assay: NCI five-dose assay; format: cell-based; settings: Homo sapiens, TK-10, TK-10, renal cancer
UO-31 (renal cancer) = assay: NCI five-dose assay; format: cell-based; settings: Homo sapiens, UO-31, UO-31, renal cancer
COLO 205 (colon cancer) = assay: NCI five-dose assay; format: cell-based; settings: Homo sapiens, COLO 205, COLO 205, colon cancer
HCC-2998 (colon cancer) = assay: NCI five-dose assay; format: cell-based; settings: Homo sapiens, HCC 2998, HCC-2998, colon cancer
HT29 (colon cancer) = assay: NCI five-dose assay; format: cell-based; settings: Homo sapiens, HT-29, HT29, colon cancer
KM12 (colon cancer) = assay: NCI five-dose assay; format: cell-based; settings: Homo sapiens
male mice = assay: Acute toxicity in vivo, median lethal dose; settings: intraperitoneal, approximate LD50 (Litchfield and Wilcoxon)
Description: The synthesized compounds were evaluated for their approximate LD50 in male mice. The mice were kept under a constant temperature and humidity in sterile cages with water and food. The stock solutions of the compounds used in this study were prepared immediately before usage and injected intraperitoneally (ip). The LD50 values (Tab. 3) were calculated using the method described by Litchfield and Wilcoxon.
The median lethal dose (LD50), the dose of the selected compounds that causes 50% mortality in mice, was determined from dose–response curves with at least four doses by the method of Litchfield and Wilcoxon.

SK-MEL-5 (melanoma) [5] = assay: NCI single-concentration screen; format: cell-based, human; settings: 10^−5 M
M14 (melanoma) = assay: NCI single-concentration screen; format: cell-based, human; settings: 10^−5 M
MALME-3M (melanoma) [6] = assay: NCI single-concentration screen; format: cell-based, human; settings: 10^−5 M
[7] = system: Mycobacterium tuberculosis H37Rv strain (ATCC 27294); assay: Antimycobacterial pre-screening at 6.25 μg/mL (BACTEC 460 radiometric system); format: cell-based; settings: M. tuberculosis H37Rv; for inhibition at 6.25 µg/mL: 6.25 μg/mL; for MIC90: pre-screening, read-out: Estimation of MIC90

## COc1cc(C2C3=C(Sc4[nH]c(=O)sc42)C(=O)c2ccccc2C3=O)ccc1O (stereo not shown) [Compound 4i, 11-(4-Hydroxy-3-methoxyphenyl)-3,11-dihydro-2H-benzo[6,7]thiochromeno[2,3-d]-[1,3]thiazole-2,5,10-trione]
60 cancer cell lines
  Mean growth %: 17.75%
(melanoma)
  Growth % of the most sensitive cell line: −74.12%
SF-295 (CNS cancer)
  Growth % of the most sensitive cell line: −50.25%
[1]
  Growth % of the most sensitive cell line: −48.22%
CCRF-CEM (leukemia)
  GI50: 3.19 µM
CCRF-CEM (leukemia); repeated testing
  GI50: 1.84 µM
SR (leukemia)
  GI50: 41.4 µM
SR (leukemia); repeated testing
  GI50: 1.96 µM
HOP-62 (NSCL cancer)
  GI50: 0.4 µM
HOP-62 (NSCL cancer); repeated testing
  GI50: 3.6 µM
NCI-H226 (NSCL cancer)
  GI50: 1.74 µM
NCI-H226 (NSCL cancer); repeated testing
  GI50: 2.85 µM
NCI-H322M (NSCL cancer)
  GI50: 2.05 µM
NCI-H322M (NSCL cancer); repeated testing
  GI50: 1.86 µM
NCI-H460 (NSCL cancer)
  GI50: 1.92 µM
NCI-H460 (NSCL cancer); repeated testing
  GI50: 1.66 µM
MALME-3M (melanoma) [2]
  GI50: 0.72 µM
MALME-3M (melanoma) [2]; repeated testing
  GI50: 1.05 µM
SK-MEL-5 (melanoma) [3]
  GI50: 0.96 µM
SK-MEL-5 (melanoma) [3]; repeated testing
  GI50: 0.48 µM
UACC-257 (melanoma)
  GI50: 1.31 µM
UACC-257 (melanoma); repeated testing
  GI50: 0.22 µM
UACC-257 (melanoma); UACC-257 /melanoma/, repeated testing
  TGI of the most sensitive cell line: (0.22 / 1.82) μM
UACC-62 (melanoma)
  GI50: 0.43 µM
UACC-62 (melanoma); repeated testing
  GI50: 1.59 µM
MCF-7 (breast cancer)
  GI50: 1.07 µM
MCF-7 (breast cancer); repeated testing
  GI50: 2.26 µM
HS 578T (breast cancer); HS 578T /breast cancer/
  TGI of the most sensitive cell line: 0.27 / 1.09 μM
HS 578T (breast cancer)
  GI50: 0.27 µM
HS 578T (breast cancer); repeated testing
  GI50: 0.65 µM
[4]
  GI50: 1.75 µM
SNB-19 (CNS cancer)
  GI50: 2.41 µM
SNB-19 (CNS cancer); repeated testing
  GI50: 2.85 µM
OVCAR-3 (ovarian cancer)
  GI50: 1.03 µM
OVCAR-3 (ovarian cancer); repeated testing
  GI50: 0.57 µM
OVCAR-5 (ovarian cancer)
  GI50: 10.4 µM
OVCAR-5 (ovarian cancer); repeated testing
  GI50: 4.49 µM
SK-OV-3 (ovarian cancer)
  GI50: 8.28 µM
SK-OV-3 (ovarian cancer); repeated testing
  GI50: 5.72 µM
786-0 (renal cancer)
  GI50: 2.6 µM
786-0 (renal cancer); repeated testing
  GI50: 5.2 µM
CAKI-1 (renal cancer)
  GI50: 1.5 µM
CAKI-1 (renal cancer); repeated testing
  GI50: 2.92 µM
RXF-393 (renal cancer)
  GI50: 2.52 µM
TK-10 (renal cancer)
  GI50: 5.74 µM
TK-10 (renal cancer); repeated testing
  GI50: 2.16 µM
UO-31 (renal cancer)
  GI50: 3.33 µM
UO-31 (renal cancer); repeated testing
  GI50: 0.57 µM
COLO 205 (colon cancer)
  GI50: 2.08 µM
COLO 205 (colon cancer); repeated testing
  GI50: 1.68 µM
HCC-2998 (colon cancer)
  GI50: 3.77 µM
HCC-2998 (colon cancer); repeated testing
  GI50: 3.24 µM
HT29 (colon cancer)
  GI50: 2.35 µM
HT29 (colon cancer); repeated testing
  GI50: 2.02 µM
KM12 (colon cancer)
  GI50: 2.25 µM
KM12 (colon cancer); repeated testing
  GI50: 2.51 µM
Male mice
  LD50ip: 280 mg/kg

## COc1ccc(C2C3=C(Sc4[nH]c(=O)sc42)C(=O)c2ccccc2C3=O)cc1OC (stereo not shown) [Compound 4f, 11-(3,4-Dimethoxyphenyl)-3,11-dihydro-2H-benzo[6,7]thiochromeno[2,3-d][1,3]thiazole-2,5,10-trione]
60 cancer cell lines
  Mean growth %: 1.77%
SK-MEL-5 (melanoma) [5]
  Growth % of the most sensitive cell line: −96.40%
M14 (melanoma)
  Growth % of the most sensitive cell line: −80.36%
MALME-3M (melanoma) [6]
  Growth % of the most sensitive cell line: −66.70%
CCRF-CEM (leukemia)
  GI50: 4.38 µM
SR (leukemia)
  GI50: 3.96 µM
HOP-62 (NSCL cancer)
  GI50: 5.87 µM
NCI-H226 (NSCL cancer)
  GI50: 5.43 µM
NCI-H322M (NSCL cancer)
  GI50: 3.78 µM
NCI-H460 (NSCL cancer)
  GI50: 2.18 µM
MALME-3M (melanoma) [2]
  GI50: 2.12 µM
SK-MEL-5 (melanoma) [3]
  GI50: 1.52 µM
  TGI of the most sensitive cell line: 1.52 / 2.85 μM
UACC-257 (melanoma)
  GI50: 6.13 µM
UACC-62 (melanoma)
  GI50: 2.21 µM
MCF-7 (breast cancer)
  GI50: 2.25 µM
HS 578T (breast cancer)
  GI50: 3.71 µM
SNB-19 (CNS cancer)
  GI50: 4.49 µM
OVCAR-3 (ovarian cancer)
  GI50: 3.01 µM
OVCAR-5 (ovarian cancer)
  GI50: 17.7 µM
SK-OV-3 (ovarian cancer)
  GI50: 13.6 µM
786-0 (renal cancer)
  GI50: 15.2 µM
CAKI-1 (renal cancer)
  GI50: 11.2 µM
RXF-393 (renal cancer)
  GI50: 2.27 µM
TK-10 (renal cancer)
  GI50: 17.6 µM
UO-31 (renal cancer)
  GI50: 10.8 µM
COLO 205 (colon cancer)
  GI50: 3.37 µM
HT29 (colon cancer)
  GI50: 3.15 µM
KM12 (colon cancer)
  GI50: 5.99 µM
[7]
  inhibition at 6.25 µg/mL: 0%
  MIC90: > 6.25 mg/L
Male mice
  LD50ip: 410 mg/kg

## COc1cc(C2C3=C(Sc4[nH]c(=O)sc42)C(=O)c2ccccc2C3=O)ccc1OCc1ccccc1 (stereo not shown) [Compound 4e, 11-[4-(Benzyloxy)-3-methoxyphenyl]-3,11-dihydro-2H-benzo[6,7]thiochromeno[2,3-d]-[1,3]thiazole-2,5,10-trione]
CCRF-CEM (leukemia)
  GI50: 23.4 µM
SR (leukemia)
  GI50: 13.8 µM
HOP-62 (NSCL cancer)
  GI50: 14.9 µM
NCI-H226 (NSCL cancer)
  GI50: 19.2 µM
NCI-H322M (NSCL cancer)
  GI50: 10.9 µM
NCI-H460 (NSCL cancer)
  GI50: 5.39 µM
MALME-3M (melanoma) [2]
  GI50: 7.12 µM
SK-MEL-5 (melanoma) [3]
  GI50: 2.62 µM
  TGI of the most sensitive cell line: 2.62 / 6.90 μM
UACC-257 (melanoma)
  GI50: 11.3 µM
UACC-62 (melanoma)
  GI50: 12.5 µM
MCF-7 (breast cancer)
  GI50: 12.9 µM
HS 578T (breast cancer)
  GI50: 4.52 µM
SNB-19 (CNS cancer)
  GI50: 11.3 µM
OVCAR-3 (ovarian cancer)
  GI50: 11.2 µM
OVCAR-5 (ovarian cancer)
  GI50: 32.1 µM
SK-OV-3 (ovarian cancer)
  GI50: 31.7 µM
786-0 (renal cancer)
  GI50: 32.6 µM
CAKI-1 (renal cancer)
  GI50: 17.4 µM
RXF-393 (renal cancer)
  GI50: 6.98 µM
TK-10 (renal cancer)
  GI50: 29.7 µM
UO-31 (renal cancer)
  GI50: 5.62 µM
COLO 205 (colon cancer)
  GI50: 10.3 µM
HCC-2998 (colon cancer)
  GI50: 16.6 µM
HT29 (colon cancer)
  GI50: 11.2 µM
KM12 (colon cancer)
  GI50: 16.9 µM
[7]
  inhibition at 6.25 µg/mL: 15%
  MIC90: > 6.25 mg/L
Male mice
  LD50ip: >1000 mg/kg
